Calls of active or inactive are those of the source. No cut-off for these calls is given here.
Assays:
Autotaxin [1] = biological target: T1, Autotaxin (Homo sapiens, UniProt Q13822); assay: Inhibition of human ATX in using LPC as substrate by fluorescence based microplate reader assay
LX-2 [2] = assay: Anti-hepatic fibrosis activity against TGF-beta1 stimulated human LX2 cells assessed as reduction in Smad2 phosphorylation incubated for 48 hrs by Western blotting analysis; type: functional, cell-based; settings: dose 5-20 µM
LX-2 [3] = assay: Anti-hepatic fibrosis activity against TGF-beta1 stimulated human LX2 cells assessed as reduction in FN protein expression level at 5 to 20 uM incubated for 48 hrs by Western blotting analysis; type: functional, cell-based; settings: dose 5-20 µM
LX-2 [4] = assay: Anti-hepatic fibrosis activity against TGF-beta1 stimulated human LX2 cells assessed as reduction in COL1A1 mRNA expression level at 5 to 20 uM incubated for 48 hrs by quantitative real-time PCR analysis; type: functional, cell-based; settings: dose 5-20 µM
CCC-HPF-1 [5] = assay: Effect on total Smad3 level in TGF-beta1 stimulated human CCC-HPF-1 cells at 5 to 20 uM incubated for 48 hrs by Western blotting analysis; type: functional, cell-based; settings: dose 5-20 µM
CCC-HPF-1 [6] = assay: Anti-pulmonary fibrosis activity against TGF-beta1 stimulated human CCC-HPF-1 cells assessed as reduction in Smad3 phosphorylation incubated for 48 hrs by Western blotting analysis; type: functional, cell-based; settings: dose 5-20 µM
LX-2 [7] = assay: Anti-hepatic fibrosis activity against TGF-beta1 stimulated human LX2 cells assessed as reduction in FN mRNA expression level at 5 to 20 uM incubated for 48 hrs by quantitative real-time PCR analysis; type: functional, cell-based; settings: dose 5-20 µM
LX-2 [8] = assay: Effect on total Smad2 level in TGF-beta1 stimulated human LX2 cells at 5 to 20 uM incubated for 48 hrs by Western blotting analysis; type: functional, cell-based; settings: dose 5-20 µM
LX-2 [9] = assay: Anti-hepatic fibrosis activity against TGF-beta1 stimulated human LX2 cells assessed as reduction in alpha-SMA mRNA expression level at 5 to 20 uM incubated for 48 hrs by quantitative real-time PCR analysis; type: functional, cell-based; settings: dose 5-20 µM
LX-2 [10] = assay: Cytotoxicity against human LX2 cells assessed as reduction in cell viability at 2.5 to 80 uM incubated for 48 hrs by MTT assay; type: toxicity, cell-based; settings: lx-2, 48 h, dose 2.5-80 µM
LX-2 [11] = assay: Effect on total Smad3 level in TGF-beta1 stimulated human LX2 cells at 5 to 20 uM incubated for 48 hrs by Western blotting analysis; type: functional, cell-based; settings: dose 5-20 µM
CCC-HPF-1 [12] = assay: Anti-pulmonary fibrosis activity against TGF-beta1 stimulated human CCC-HPF-1 cells assessed as reduction in COL1A1 protein expression level at 5 to 20 uM incubated for 48 hrs by Western blotting analysis; type: functional, cell-based; settings: dose 5-20 µM
CCC-HPF-1 [13] = assay: Anti-pulmonary fibrosis activity against TGF-beta1 stimulated human CCC-HPF-1 cells assessed as reduction in FN protein expression level at 5 to 20 uM incubated for 48 hrs by Western blotting analysis; type: functional, cell-based; settings: dose 5-20 µM
CCC-HPF-1 [14] = assay: Effect on total Smad2 level in TGF-beta1 stimulated human CCC-HPF-1 cells at 5 to 20 uM incubated for 48 hrs by Western blotting analysis; type: functional, cell-based; settings: dose 5-20 µM
LX-2 [15] = assay: Anti-hepatic fibrosis activity against TGF-beta1 stimulated human LX2 cells assessed as reduction in COL1A1 protein expression level at 5 to 20 uM incubated for 48 hrs by Western blotting analysis; type: functional, cell-based; settings: dose 5-20 µM
Autotaxin [16] = biological target: T1, Autotaxin; assay: Potency index, ratio of GLPG-1690 IC50 to test compound IC50 for inhibition of human ATX in using LPC as substrate by fluorescence based microplate reader assay
CCC-HPF-1 [17] = assay: Cytotoxicity against human CCC-HPF-1 cells assessed as reduction in cell viability at 2.5 to 80 uM incubated for 48 hrs by MTT assay; type: toxicity, cell-based; settings: ccc-hpf-1, 48 h, dose 2.5-80 µM
CCC-HPF-1 [18] = assay: Anti-pulmonary fibrosis activity against TGF-beta1 stimulated human CCC-HPF-1 cells assessed as reduction in FN mRNA expression level at 5 to 20 uM incubated for 48 hrs by quantitative real-time PCR analysis; type: functional, cell-based; settings: dose 5-20 µM
CCC-HPF-1 [19] = assay: Anti-migratory activity against TGF-beta1 stimulated human CCC-HPF-1 cells at 10 uM incubated for 24 hrs by light microscopic analysis; type: functional, cell-based
LX-2 [20] = assay: Anti-hepatic fibrosis activity against TGF-beta1 stimulated human LX2 cells assessed as inhibition of Smad2/3 nuclear translocation at 10 uM incubated for 48 hrs by DAPI staining based immunofluorescence analysis; type: functional, cell-based
CCC-HPF-1 [21] = assay: Anti-pulmonary fibrosis activity against TGF-beta1 stimulated human CCC-HPF-1 cells assessed as inhibition of Smad2/3 nuclear translocation at 10 uM incubated for 48 hrs by DAPI staining based immunofluorescence analysis; type: functional, cell-based
LX-2 [22] = assay: Anti-hepatic fibrosis activity against TGF-beta1 stimulated human LX2 cells assessed as reduction in alpha-SMA protein expression level at 5 to 20 uM incubated for 48 hrs by Western blotting analysis; type: functional, cell-based; settings: dose 5-20 µM
CCC-HPF-1 [23] = assay: Anti-pulmonary fibrosis activity against TGF-beta1 stimulated human CCC-HPF-1 cells assessed as reduction in alpha-SMA mRNA expression level at 5 to 20 uM incubated for 48 hrs by quantitative real-time PCR analysis; type: functional, cell-based; settings: dose 5-20 µM
CCC-HPF-1 [24] = assay: Anti-pulmonary fibrosis activity against TGF-beta1 stimulated human CCC-HPF-1 cells assessed as reduction in COL1A1 mRNA expression level at 5 to 20 uM incubated for 48 hrs by quantitative real-time PCR analysis; type: functional, cell-based; settings: dose 5-20 µM
CCC-HPF-1 [25] = assay: Anti-pulmonary fibrosis activity against TGF-beta1 stimulated human CCC-HPF-1 cells assessed as reduction in alpha-SMA protein expression level at 5 to 20 uM incubated for 48 hrs by Western blotting analysis; type: functional, cell-based; settings: dose 5-20 µM
CCC-HPF-1 [26] = assay: Anti-pulmonary fibrosis activity against TGF-beta1 stimulated human CCC-HPF-1 cells assessed as reduction in Smad2 phosphorylation incubated for 48 hrs by Western blotting analysis; type: functional, cell-based; settings: dose 5-20 µM
LX-2 [27] = assay: Anti-hepatic fibrosis activity against TGF-beta1 stimulated human LX2 cells assessed as reduction in Smad3 phosphorylation incubated for 48 hrs by Western blotting analysis; type: functional, cell-based; settings: dose 5-20 µM
LX-2 [28] = assay: Anti-migratory activity against TGF-beta1 stimulated human LX2 cells at 10 uM incubated for 24 hrs by light microscopic analysis; type: functional, cell-based

C[C@H](CCC(=O)N1CCc2nc(NCCc3c[nH]c4ccccc34)ncc2C1)[C@H]1CC[C@H]2[C@@H]3[C@@H](O)C[C@@H]4C[C@H](O)CC[C@]4(C)[C@H]3CC[C@]12C
IC50 (Autotaxin [1]): 335 nM

COc1ccc(CCNc2ncc3c(n2)CCN(C(=O)CC[C@@H](C)[C@H]2CC[C@H]4[C@@H]5[C@@H](O)C[C@@H]6C[C@H](O)CC[C@]6(C)[C@H]5CC[C@]24C)C3)cc1
IC50 (Autotaxin [1]): 136 nM

C[C@H](CCC(=O)N1CCc2nc(NCCc3ccncc3)ncc2C1)[C@H]1CC[C@H]2[C@@H]3[C@@H](O)C[C@@H]4C[C@H](O)CC[C@]4(C)[C@H]3CC[C@]12C
IC50 (Autotaxin [1]): 35.6 nM

C[C@H](CCC(=O)N1CCc2nc(NCCc3cccc(F)c3)ncc2C1)[C@H]1CC[C@H]2[C@@H]3[C@@H](O)C[C@@H]4C[C@H](O)CC[C@]4(C)[C@H]3CC[C@]12C
IC50 (Autotaxin [1]): 41.4 nM

C[C@H](CCC(=O)N1CCc2nc(NCc3ccccc3)ncc2C1)[C@H]1CC[C@H]2[C@@H]3[C@@H](O)C[C@@H]4C[C@H](O)CC[C@]4(C)[C@H]3CC[C@]12C
IC50 (Autotaxin [1]): 342 nM

C[C@H](CCC(=O)N1Cc2cnc(NC3Cc4ccccc4C3)nc2C1)[C@H]1CC[C@H]2[C@@H]3[C@@H](O)C[C@@H]4C[C@H](O)CC[C@]4(C)[C@H]3CC[C@]12C
IC50 (Autotaxin [1]): 438 nM

C[C@H](CCC(=O)N1CCc2nc(NCc3cc(Cl)cc(Cl)c3)ncc2C1)[C@H]1CC[C@H]2[C@@H]3[C@@H](O)C[C@@H]4C[C@H](O)CC[C@]4(C)[C@H]3CC[C@]12C
IC50 (Autotaxin [1]): 40.2 nM

C[C@H](CCC(=O)N1CCc2nc(NCCc3ccc(Cl)cc3)ncc2C1)[C@H]1CC[C@H]2[C@@H]3[C@@H](O)C[C@@H]4C[C@H](O)CC[C@]4(C)[C@H]3CC[C@]12C
Activity (LX-2 [2]): Dose-Dependent Effect | Activity (LX-2 [3]): Active | Activity (LX-2 [4]): Active | Activity (CCC-HPF-1 [5]): inactive | Activity (CCC-HPF-1 [6]): Dose-Dependent Effect | Activity (LX-2 [7]): Active | Activity (LX-2 [8]): inactive | Activity (LX-2 [9]): Active | Activity (LX-2 [10]): Non-Toxic | Activity (LX-2 [11]): inactive | Activity (CCC-HPF-1 [12]): Active | Activity (CCC-HPF-1 [13]): Active | Activity (CCC-HPF-1 [14]): inactive | Activity (LX-2 [15]): Active | Ratio IC50 (Autotaxin [16]): 9 | Activity (CCC-HPF-1 [17]): Non-Toxic | Activity (CCC-HPF-1 [18]): Active | Activity (CCC-HPF-1 [19]): Active | Activity (LX-2 [20]): Active | Activity (CCC-HPF-1 [21]): Active | Activity (LX-2 [22]): Active | Activity (CCC-HPF-1 [23]): Active | Activity (CCC-HPF-1 [24]): Active | IC50 (Autotaxin [1]): 7.51 nM | Activity (CCC-HPF-1 [25]): Active | Activity (CCC-HPF-1 [26]): Dose-Dependent Effect | Activity (LX-2 [27]): Dose-Dependent Effect | Activity (LX-2 [28]): Active

C[C@H](CCC(=O)O)[C@H]1CC[C@H]2[C@@H]3[C@@H](O)C[C@@H]4C[C@H](O)CC[C@]4(C)[C@H]3CC[C@]12C [URSODIOL]
IC50 (Autotaxin [1]): 9260 nM

C[C@H](CCC(=O)N1CCc2nc(NC3Cc4ccc(Br)cc4C3)ncc2C1)[C@H]1CC[C@H]2[C@@H]3[C@@H](O)C[C@@H]4C[C@H](O)CC[C@]4(C)[C@H]3CC[C@]12C (some centres undefined)
IC50 (Autotaxin [1]): 15.4 nM

C[C@H](CCC(=O)N1CCc2nc(NCCc3cccc(Cl)c3)ncc2C1)[C@H]1CC[C@H]2[C@@H]3[C@@H](O)C[C@@H]4C[C@H](O)CC[C@]4(C)[C@H]3CC[C@]12C
IC50 (Autotaxin [1]): 165 nM

C[C@H](CCC(=O)N1CCc2nc(NCCc3ccccc3F)ncc2C1)[C@H]1CC[C@H]2[C@@H]3[C@@H](O)C[C@@H]4C[C@H](O)CC[C@]4(C)[C@H]3CC[C@]12C
IC50 (Autotaxin [1]): 15.6 nM

— ChEMBL document CHEMBL5537145, “Design, synthesis and evaluation of novel UDCA-aminopyrimidine hybrids as ATX inhibitors for the treatment of hepatic and pulmonary fibrosis” (Eur J Med Chem, 2024)
